This assay has as its target GSK 3α (Homo sapiens (Human), UniProt P49840). Briefly: GSK 3α enzyme inhibition (Method 2), Z-LYTE FRET. The assay is classed as biochemical. The conditions noted are these: read-out: IC50 Values for Enzyme Inhibition GSK3α. On the procedure:
The enzyme inhibitory activities of compounds disclosed herein are determined by FRET using synthetic peptides labelled with both donor and acceptor fluorophores (Z-LYTE, Invitrogen Ltd., Paisley, UK).
The following two assay variants can be used for determination of GSK 3α inhibition.
The inhibitory activities of compounds of the invention against the GSK 3α enzyme isoform (Invitrogen), are evaluated by determining the level of activation/phosphorylation of the target peptide. The GSK3-α protein (500 ng/mL, 2.5 μL) is mixed with the test compound (2.5 μL at either 4 μg/mL, 0.4 μg/mL, 0.04 μg/mL, or 0.004 μg/mL) for 2 hr at RT. The FRET peptide (8 μM, 2.5 μL), which is a phosphorylation target for GSK3α, and ATP (40 μM, 2.5 μL) are then added to the enzyme/compound mixture and the resulting mixture incubated for 1 hr. Development reagent (protease, 5 μL) is added for 1 hr prior to detection in a fluorescence microplate reader (Varioskan® Flash, ThermoFisher Scientific).
In all cases, the site-specific protease cleaves non-phosphorylated peptide only and eliminates the FRET signal. Phosphorylation levels of each reaction are calculated using the ratio of coumarin emission (donor) over fluorescein emission (acceptor), for which high ratios indicate high phosphorylation and low ratios indicate low phosphorylation levels.
This method follows the same steps as Method 1 above, but utilises a shorter period of mixing of the test compound (105 minutes instead of 2 hours) with the GSK3-α protein. In addition, the concentrations of test compound employed are either 10 μg/mL, 1 μg/mL, 0.1 μg/mL, or 0.01 μg/mL

Drawing on US9751837B2, “Kinase inhibitors” (RESPIVERT LIMITED, priority 2014, dated 2017), this text covers IC50 for 16 molecules.

Bounds are passed on as bounds.

Sequence of GSK 3α (P49840 whole entry): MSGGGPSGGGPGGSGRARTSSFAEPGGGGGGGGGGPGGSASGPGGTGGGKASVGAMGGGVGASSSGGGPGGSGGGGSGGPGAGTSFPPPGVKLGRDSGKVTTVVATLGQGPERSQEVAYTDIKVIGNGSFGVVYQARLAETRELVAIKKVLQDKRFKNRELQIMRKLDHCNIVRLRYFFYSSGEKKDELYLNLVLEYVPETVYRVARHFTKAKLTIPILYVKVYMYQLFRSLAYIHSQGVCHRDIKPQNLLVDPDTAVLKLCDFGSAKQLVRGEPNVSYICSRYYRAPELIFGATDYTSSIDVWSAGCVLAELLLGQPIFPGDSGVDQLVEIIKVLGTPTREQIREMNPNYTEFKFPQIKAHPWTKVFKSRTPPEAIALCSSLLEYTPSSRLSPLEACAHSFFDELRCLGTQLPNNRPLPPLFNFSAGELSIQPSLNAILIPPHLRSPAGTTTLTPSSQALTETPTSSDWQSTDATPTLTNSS

The IC50 is the concentration needed to halve the response being measured. Turning to `COc1cc(Nc2nccc(Oc3ccc(NC(=O)Nc4cc(C(C)(C)C)cc(NS(C)(=O)=O)c4OC)c4ccccc34)n2)ccc1C(=O)NCCN1CCOCC1` [17(i), 4-[[4-[[4-[[5-tert-butyl-3-(methanesulfonamido)-2-methoxy-phenyl]carbamoylamino]-1-naphthyl]oxy]pyrimidin-2-yl]amino]-2-methoxy-N-(2-morpholinoethyl)benzamide], the IC50 was 594 nM.

For the molecule `COc1cc(Nc2cc(Oc3ccc(NC(=O)Nc4cc(C(C)(C)C)cc(NS(C)(=O)=O)c4OC)c4ccccc34)ccn2)ccc1C(=O)NCCN1CCOCC1(C)C` [17(k), 4-[[4-[[4-[[5-tert-butyl-3-(methanesulfonamido)-2-methoxy-phenyl]carbamoylamino]-1-naphthyl]oxy]-2-pyridyl]amino]-N-[2-(3,3-dimethylmorpholin-4-yl)ethyl]-2-methoxy-benzamide], the half-inhibitory concentration (IC50) is greater than 11900 nM. The same measure for `COc1cc(Nc2cc(Oc3ccc(NC(=O)Nc4cc(C(C)(C)C)cc(NS(C)(=O)=O)c4OC)c4ccccc34)ccn2)ccc1C(=O)NCCN1CCSCC1` [17(l), 4-[[4-[[4-[[5-tert-butyl-3-(methanesulfonamido)-2-methoxy-phenyl]carbamoylamino]-1-naphthyl]oxy]-2-pyridyl]amino]-2-methoxy-N-(2-thiomorpholinoethyl)benzamide]: greater than 12100 nM; for `COc1cc(Nc2cc(Oc3ccc(NC(=O)Nc4cc(C(C)(C)C)cc(NS(C)(=O)=O)c4OC)c4ccccc34)ccn2)ccc1C(=O)NCCN1CCC(O)CC1` [17(m), 4-[[4-[[4-[[5-tert-butyl-3-(methanesulfonamido)-2-methoxy-phenyl]carbamoylamino]-1-naphthyl]oxy]-2-pyridyl]amino]-N-[2-(4-hydroxy-1-piperidyl)ethyl]-2-methoxy-benzamide]: 2770 nM; for `COc1cc(Nc2cc(Oc3ccc(NC(=O)Nc4cc(C(C)(C)C)cc(NS(C)(=O)=O)c4OC)c4ccccc34)ccn2)ccc1C(=O)NCC(C)(C)N1CCOCC1` [17(n), 4-[[4-[[4-[[5-tert-butyl-3-(methanesulfonamido)-2-methoxy-phenyl]carbamoylamino]-1-naphthyl]oxy]-2-pyridyl]amino]-2-methoxy-N-(2-methyl-2-morpholino-propyl)benzamide]: greater than 11900 nM. Regarding `COc1cc(Nc2cc(Oc3ccc(NC(=O)Nc4cc(C(C)(C)C)cc(NS(C)(=O)=O)c4OC)c4ccccc34)ccn2)ccc1S(=O)(=O)N(C)CCN1CCOCC1` [17(o), 1-[5-tert-butyl-3-(methanesulfonamido)-2-methoxy-phenyl]-3-[4-[[2-[3-methoxy-4-[methyl(2-morpholinoethyl)sulfamoyl]anilino]-4-pyridyl]oxy]-1-naphthyl]urea], the half-maximal inhibitory concentration (IC50) came to 3320 nM.

As to `COc1cc(Nc2cc(Oc3ccc(NC(=O)Nc4cc(C(C)(C)C)cc(NS(C)(=O)=O)c4OC)c4ccccc34)ccn2)ccc1C(=O)NCCN1CCCC1` [17(q), 4-[[4-[[4-[[5-tert-butyl-3-(methanesulfonamido)-2-methoxy-phenyl]carbamoylamino]-1-naphthyl]oxy]-2-pyridyl]amino]-2-methoxy-N-(2-pyrrolidin-1-ylethyl)benzamide], the IC50 amounted to 1980 nM.

Turning to `COc1cc(Nc2cc(Oc3ccc(NC(=O)Nc4cc(C(C)(C)C)cc(NS(C)(=O)=O)c4OC)c4ccccc34)ccn2)ccc1C(=O)NCCN1CCS(=O)(=O)CC1` [17(r), 4-[[4-[[4-[[5-tert-butyl-3-(methanesulfonamido)-2-methoxy-phenyl]carbamoylamino]-1-naphthyl]oxy]-2-pyridyl]amino]-N-[2-(1,1-dioxo-1,4-thiazinan-4-yl)ethyl]-2-methoxy-benzamide], the 50% inhibitory concentration (IC50) was 4040 nM. Turning to `COc1cc(Nc2cc(Oc3ccc(NC(=O)Nc4cc(C(C)(C)C)cc(NS(C)(=O)=O)c4OC)c4ccccc34)ccn2)ccc1C(=O)NCCCCC(=O)O` [17(s), 5-[[4-[[4-[[4-[[5-tert-butyl-3-(methanesulfonamido)-2-methoxy-phenyl]carbamoylamino]-1-naphthyl]oxy]-2-pyridyl]amino]-2-methoxy-benzoyl]amino]pentanoic acid], the half-maximal inhibitory concentration (IC50) came out at 394 nM. Regarding `COc1c(NC(=O)Nc2ccc(Oc3ccnc(Nc4ccc(C(=O)O)cc4)c3)c3ccccc23)cc(C(C)(C)C)cc1NS(C)(=O)=O` [17(t), 4-[[4-[[4-[[5-tert-butyl-3-(methanesulfonamido)-2-methoxy-phenyl]carbamoylamino]-1-naphthyl]oxy]-2-pyridyl]amino]benzoic acid], the IC50 came out at 140 nM.

For the molecule `COc1cc(Nc2cc(Oc3ccc(NC(=O)Nc4cc(C(C)(C)C)cc(NS(C)(=O)=O)c4OC)c4ccccc34)ccn2)ccc1C(=O)NCCN1CCNCC1` [17(w), 4-[[4-[[4-[[5-tert-butyl-3-(methanesulfonamido)-2-methoxy-phenyl]carbamoylamino]-1-naphthyl]oxy]-2-pyridyl]amino]-2-methoxy-N-(2-piperazin-1-ylethyl)benzamide], the half-inhibitory concentration (IC50) was 674 nM. As for `COc1cc(Nc2cc(Oc3ccc(NC(=O)Nc4cc(C(C)(C)C)cc(C(N)=O)c4OC)c4ccccc34)ccn2)ccc1C(=O)NCCN1CCOCC1` [Example 4, 4-((4-((4-(3-(5-(tert-Butyl)-3-carbamoyl-2-methoxyphenyl)ureido)naphthalen-1-yl)oxy)pyridin-2-yl)amino)-2-methoxy-N-(2-morpholinoethyl)benzamide], the IC50 stood at 2020 nM. Consider `COCCOCCOCCNC(=O)c1ccc(Nc2cc(Oc3ccc(NC(=O)Nc4cc(C(C)(C)C)cc(NS(C)(=O)=O)c4OC)c4ccccc34)ccn2)cc1OC` [Example 5, 4-((4-((4-(3-(5-(tert-Butyl)-2-methoxy-3-(methylsulfonamido)phenyl)ureido)naphthalen-1-yl)oxy)pyridin-2-yl)amino)-2-methoxy-N-(2-(2-(2-methoxyethoxy)ethoxy)ethyl)benzamide], for which the half-maximal inhibitory concentration (IC50) is 1340 nM.

As for `COCCOCCOCCNC(=O)c1ccc(Nc2cc(Oc3ccc(NC(=O)Nc4cc(C(C)(C)C)cc(C(N)=O)c4OC)c4ccccc34)ccn2)cc1OC` [Example 6, 4-((4-((4-(3-(5-(tert-Butyl)-3-carbamoyl-2-methoxyphenyl)ureido)naphthalen-1-yl)oxy)pyridin-2-yl)amino)-2-methoxy-N-(2-(2-(2-methoxyethoxy)ethoxy)ethyl)benzamide], the 50% inhibitory concentration (IC50) stood at 1900 nM. The same measure for `COc1cc(Nc2cc(Oc3ccc(NC(=O)Nc4cc(C(C)(C)C)cc(NS(C)(=O)=O)c4OC)c4ccccc34)ccn2)ccc1C(=O)NCCN1CC[S+]([O-])CC1` [Example 7, 4-((4-((4-(3-(5-(tert-Butyl)-2-methoxy-3-(methylsulfonamido)phenyl)ureido)naphthalen-1-yl)oxy)pyridin-2-yl)amino)-2-methoxy-N-(2-(1-oxidothiomorpholino)ethyl)benzamide]: 1100 nM; for `COCCOCCOCCOc1ccc(Nc2cc(Oc3ccc(NC(=O)Nc4cc(C(C)(C)C)cc(NS(C)(=O)=O)c4OC)c4ccccc34)ccn2)cc1C#N` [Example 8, N-(5-(tert-Butyl)-3-(3-(4-((2-((3-cyano-4-(2-(2-(2-methoxyethoxy)ethoxy)ethoxy)phenyl)amino)pyridin-4-yl)oxy)naphthalen-1-yl)ureido)-2-methoxyphenyl)methanesulfonamide]: 3770 nM.
